In US20200323823A1, “METHODS FOR THE TREATMENT OF DEPRESSION” (Praxis Precision Medicines, Inc., priority 2018, published 2020):
Where two headings read alike, the source gives them in different places.

Key:
[1] = human, in vivo
Protocol: (§2) Healthy subjects aged 18 to 55 years were treated with an oral suspension of Compound 1 to study the safety, tolerability, pharmacokinetics and pharmacodynamics of Compound 1 in healthy subjects.
(§3) The study was a randomized, double-blind, placebo-controlled multiple escalating dose study comprised of 3 cohorts that each received an oral suspension. Each cohort consisted of two groups: one group treated with Compound 1 and another treated with placebo. In each cohort, the ratio of Compound 1-treated subjects to placebo-treated subjects was 3:1.
(§4) The Compound 1-treated subjects of Cohort 1 were treated with 15.0 mg of Compound 1 once per day (QD). The Compound 1-treated subjects of Cohort 2 were treated with 30.0 mg of Compound 1 QD. The Compound 1-treated subjects of Cohort 3 were treated with 60.0 mg of Compound 1 QD.
(§5) Patients in each cohort were treated with Compound 1 for 14 consecutive days, unless dosing was halted by the Safety Review Committee (SRC). The dosing of subjects in each of the cohorts was staggered with the decision to dose escalate based on SRC review of a minimum of 14 days of observation of safety and tolerability data and review of the available plasma PK data from the preceding cohort(s). Thus, dose escalation was predicated on tolerability of the prior cohorts.
(§6) Compound 1 was administered under fasted conditions (no food or drink, except water, for at least 10 hours prior to dosing). Immediately after administration of Compound 1, the subject was be administered 240 mL water. No additional fluid intake was allowed until 1 hour after Compound 1 administration.
(§7) Cohort 1 subjects received a single 15.0 mg dose of a Compound 1 suspension on the morning of Days 1-14. Cohort 2 subjects received a single 30.0 mg dose of a Compound 1 suspension on the morning of Days 1-14. Cohort 3 subjects received a single 60.0 mg dose of a Compound 1 suspension on the morning of Days 1-14. For all cohorts, the last treatment was administered on the morning of Day 14.
(§8) Data were obtained from the blood plasma samples collected from each cohort according to the schedule provided.
(§9) Plasma samples were analyzed to determine Compound 1 concentrations using a validated assay method. Pharmacokinetic variables (including but not limited to Cmax, Tmax and AUC(0-last)), were calculated using non-compartmental analysis. PK parameters for Compound 1 were derived from the plasma concentration data using non-compartmental analysis with Phoenix™ WinNonlin® v 8.0 (Pharsight Corporation, USA).
(§10) For each cohort, blood samples were collected on Days 1, 2, 3, 4, 5, 6 and 14 at the following time points: Day 1 at pre-dose (0 hour), 0.25, 0.5, 0.75, 1, 1.5, 2, 2.5, 3, 4, 6, 8, 12, 16 h post-dose; Day 2 at pre-dose (24 h), Day 3 at pre-dose (48 h), Day 4 at pre-dose (72 h), Day 5 at pre-dose (96 h), Day 6 at pre-dose (120 h); Day 14 at pre-dose 0.25, 0.5, 0.75, 1, 1.5, 2, 2.5, 3, 4, 6, 8, 12, 16, 24, 36, 48, and 72 hours. Trough level blood samples were collected on Days 2, 3, 4, 5, 6 and 14, prior to the morning dose administrations.
(§11) Descriptive statistics were calculated for plasma and urine PK parameter and concentration data, and summarized by study day and time point. Arithmetic means, coefficient of variation (CV), standard deviation, median, minimum, and maximum values, and number of observations were calculated for all PK parameters and trough concentration data. Except for Tmax, the geometric mean, geometric standard deviation, and geometric CV were provided for all PK parameter and concentration data.

[2] = Randomized, double-blind, placebo-controlled multiple escalating dose study, plasma PK of Compound 1 oral suspension (Cohorts 1-3); settings: for Vd/F: Vz/F
Protocol: as §2, §3, §4, §5, §6, §7, §8, §9, §10, §11

[3] = Safety/tolerability in MDD patients, Part A; type: in vivo, human; settings: 80 mg Cohort, compared to the 45 mg Cohort
Protocol: (§1) In Part A, participants were administered daily doses of Compound 1 (45 mg Cohort and 80 mg Cohort) at 4 PM on Day 1 and qHS on all other study days for 7 days inpatient followed by 7 days outpatient (with subsequent Cohorts receiving up to 120 mg qHS). Participants checked into the clinic on Day 1. During this period the following assessments were performed: adverse event assessments, vital signs, physical examinations, blood and urine samples for safety assessments, ECGs, C-SSRS assessments, blood samples for PK, and efficacy assessments (HAM-D, MADRS, HAM-A, CGI [CGI-S and CGI-I], PSQI, and SDQ). Baseline assessments occurred on Day 1 prior to administration of study drug. On Day 8, prior to discharge, participants were supplied with sufficient Compound 1 to complete 7 days of dosing.
Adverse events (AEs) will be monitored throughout the duration of the study.

[4] = tested on: patients with severe major depressive disorder (MDD); test: Open-label study in severe MDD, Part A, HAM-D efficacy; type: in vivo, human
Protocol: The study is an open-label, study comprised of two dosing periods, Part A and Part B, during which patients were treated with an oral suspension of Compound 1. Part A was an open-label assessment of two dose levels of Compound 1 (45 mg qHS Cohort 1 and 80 mg qHS Cohort, i.e., once daily administration at bedtime) administered for 7 days inpatient followed by 7 days outpatient. PRAX-114 was administered at 4 PM on Day 1 in order to collect post-dosing PK samples that could not be collected with qHS dosing.
as §1
Patients were administered daily doses of Compound 1 for 7 days inpatient followed by 7 days outpatient.
In the 45 mg Cohort, patients were administered once daily dose of 45 mg of Compound 1 at bedtime for 7 days inpatient followed by once daily dose of 45 mg of Compound 1 at bedtime for 7 days outpatient.
In the 80 mg Cohort, patients were administered once daily dose of 80 mg of Compound 1 at bedtime for 7 days inpatient followed by once daily dose of 80 mg of Compound 1 at bedtime for 7 days outpatient.
In Part A, HAM-D, MADRS, HAM-A, CGI-S, and CGI-I values were collected in the morning of Days 1, 2, 3, 4, 5, 6, 7, 8, 15, 21 and 28. PSQI and SDQ values will be collected on Days 1, 8, 15, 21 and 28. Part B: In Part B, HAM-D, MADRS, HAM-A, CGI-S, CGI-I, PSQI and SDQ values will be collected on the days described for Part A.
HAM-D Response was defined as a reduction from baseline of ≥50% in total HAM-D score. HAM-D remission was defined as a total HAM-D score of ≤7.
For both parts of the clinical trial, the HAM-D total score and change from baseline values will be summarized by treatment group and time point. In addition, the change from baseline in HAM-D total score will also be analyzed using paired t-tests or similar methods. The null hypothesis of this test is that the mean difference in HAM-D total score between paired observations (i.e., pre- and post-treatment) is zero. Similar analysis methods will be used for all secondary and exploratory efficacy variables.

[5] = clinical; settings: human, in vivo; for AUC(0-inf): AUCinf
Protocol: as §2, §3, §4, §5, §6, §7, §8, §9, §10, §11

[6] = in vivo, po
Protocol: (§12) The Day 1 dose was administered after a minimum of 10 hour fasting. No additional fluid intake was allowed until 1 hour after drug administration. A standard meal was given at least 4 hours post-dose. The Day 5 dose was administered following a high-fat, high calorie meal. Participants remained at the clinical site for a total of 8 days to complete PK sampling after the second dose.
(§13) Pharmacokinetic variables (including but not limited to Cmax, Tmax and AUC(0-last)), were calculated using non-compartmental analysis.
(§14) Urine (Cohort 4): No urine analysis was conducted in Cohort 4.

[7] = Food Effect Cohort (Cohort 4), single 30 mg dose fasted vs high-fat, high calorie meal, plasma PK; settings: human, po, t 1/2, Cohort 4, single 30 mg oral, n = 10, Mean (SD)
Protocol: as §12, §13, §14

[8] = Cohort 1, 15.0 mg QD oral, Day 14, Mean
[9] = Cohort 2, 30.0 mg QD oral, Day 14, Mean

With `COC[C@@]1(O)CC[C@@]2(C)[C@@H](CC[C@@H]3[C@@H]2CC[C@]2(C)[C@@H](C(=O)Cn4ccnc4)CC[C@@H]32)C1` [Compound 1, 3α-Hydroxy-3β-methoxymethyl-21-(1′-imidazolyl)-5α-pregnan-20-one] the “dose dependence of Cavg, AUCss and AUCinf” value [1] was “proportional increase”, the “dose dependence of Cmax and AUC parameters at steady state” value ([1]; po) was “approximate proportional increase” and the steady state clearance ([1]; po) was “approximately 31 L/h”. For the same molecule, the “accumulation factor of the dosing interval (ratio of AUCDay 14/AUCDay 1)” value ([1]; po, 15 mg) was “approximately 1.25”, the Cmax ([1]; po, 30 mg) was 156.00 ng/mL and the “accumulation factor of the dosing interval (ratio of AUCDay 14/AUCDay 1)” value ([1]; po, 30 mg) was “approximately 1.25”. For the same molecule, the Tmax ([1]; po, 60 mg) was 1.00 h, the “accumulation factor of the dosing interval (ratio of AUCDay 14/AUCDay 1)” value ([1]; po, 60 mg) was 0.89 and the CLss/F ([2]; Cohort 1, 15.0 mg QD oral, Day 14, Geo Mean) was 30.497 L/h. The CLss/F [2, 8] was 31.415 L/h, the t1/2 [2, 8] was 14.772 h and the CLss/F ([2]; Cohort 1, 15.0 mg QD oral, Day 14, Median) was 30.41 L/h. It also gave a CLss/F ([2]; Cohort 2, 30.0 mg QD oral, Day 14, Geo Mean) of 30.178 L/h, a CLss/F [2, 9] of 30.949 L/h and a t1/2 [2, 9] of 12.701 h. The CLss/F ([2]; Cohort 2, 30.0 mg QD oral, Day 14, Median) was 30.12 L/h, the CLss/F ([2]; Cohort 3, 60.0 mg QD oral, Day 14, Geo Mean) was 30.398 L/h and the CLss/F ([2]; Cohort 3, 60.0 mg QD oral, Day 14, Mean) was 32.142 L/h. It also gave a CLss/F ([2]; Cohort 3, 60.0 mg QD oral, Day 14, Median) of 28.45 L/h, a Vd/F ([2]; human, plasma, po, 15 mg, Cohort 1, 15.0 mg QD oral, Day 14, Geo Mean) of 643 L and a Vd/F ([2]; human, plasma, po, 15 mg, Cohort 1, 15.0 mg QD oral, Day 14, Mean) of 655 L. The Vd/F ([2]; human, plasma, po, 15 mg, Cohort 1, 15.0 mg QD oral, Day 14, Median) was 657 L, the half-life ([2]; human, plasma, po, 15 mg, t1/2, Cohort 1, 15.0 mg QD oral, Day 14, Geo Mean) was 877 min and the half-life ([2]; human, plasma, po, 15 mg, t1/2, Cohort 1, 15.0 mg QD oral, Day 14, Mean) was 886 ± 136 min. It also gave a half-life ([2]; human, plasma, po, 15 mg, t1/2, Cohort 1, 15.0 mg QD oral, Day 14, Median) of 916 min, a Cmax ([2]; human, plasma, po, 30 mg, Cmax, Cohort 2, 30.0 mg QD oral, Day 1, Geometric Mean) of 120 ng/mL and a Vd/F ([2]; human, plasma, po, 30 mg, Cohort 2, 30.0 mg QD oral, Day 14, Geo Mean) of 551 L. It also gave a Vd/F ([2]; human, plasma, po, 30 mg, Cohort 2, 30.0 mg QD oral, Day 14, Mean) of 570 L, a Vd/F ([2]; human, plasma, po, 30 mg, Cohort 2, 30.0 mg QD oral, Day 14, Median) of 514 L and a half-life ([2]; human, plasma, po, 30 mg, t1/2, Cohort 2, 30.0 mg QD oral, Day 14, Geo Mean) of 759 min. The half-life ([2]; human, plasma, po, 30 mg, t1/2, Cohort 2, 30.0 mg QD oral, Day 14, Mean) was 762 ± 73.8 min, the half-life ([2]; human, plasma, po, 30 mg, t1/2, Cohort 2, 30.0 mg QD oral, Day 14, Median) was 774 min and the Vd/F ([2]; human, plasma, po, 60 mg, Cohort 3, 60.0 mg QD oral, Day 14, Geo Mean) was 533 L. For the same molecule, the Vd/F ([2]; human, plasma, po, 60 mg, Cohort 3, 60.0 mg QD oral, Day 14, Mean) was 574 L, the Vd/F ([2]; human, plasma, po, 60 mg, Cohort 3, 60.0 mg QD oral, Day 14, Median) was 531 L and the half-life ([2]; human, plasma, po, 60 mg, t1/2, Cohort 3, 60.0 mg QD oral, Day 14, Geo Mean) was 730 min. It also gave a half-life ([2]; human, plasma, po, 60 mg, t1/2, Cohort 3, 60.0 mg QD oral, Day 14, Mean) of 734 ± 79.2 min, a half-life ([2]; human, plasma, po, 60 mg, t1/2, Cohort 3, 60.0 mg QD oral, Day 14, Median) of 745 min and a half-life ([2]; human, plasma, po, mean t1/2, steady state, across Cohorts 1-3 (15.0-60.0 mg QD oral)) of 734 to 886 min. For the same molecule, the “tolerability / Adverse Event profile” value [3] was “well tolerated with no change in Adverse Event profile”, the “least squares Mean Change from Baseline in HAM-D score” value (“least squares Mean Change” for short) ([4]; 45 mg Cohort, Day 7) was −17.8 and the “least squares Mean Change” value ([4]; 45 mg Cohort, Day 15) was −13.2. For the same molecule, the “patients who met the HAM-D Response or Remission criterion” value ([4]; 45 mg Cohort, once daily at bedtime, Day 7) was 11 of the 13, the “patients who met the HAM-D Response or Remission criteria” value ([4]; 45 mg Cohort, once daily at bedtime, Day 15) was 8 of the 13 and the “least squares Mean Change” value ([4]; 80 mg Cohort, Day 7) was −20.0. For the same molecule, the “least squares Mean Change” value ([4]; 80 mg Cohort, Day 15) was −16.0, the “patients who met the HAM-D Response or Remission criteria” value ([4]; 80 mg Cohort, once daily at bedtime, Day 15) was 6 of the 7 and the “Efficacy by background antidepressant” value ([4]; as monotherapy and in combination with another antidepressant) was “Efficacy was observed”. The “symptoms of moderate to severe MDD” value ([4]; daily dose of 45 mg or 80 mg) was “exhibited reduced symptoms of moderate to severe MDD”, the Tmax [5] was no more than 2 h and the AUC ([5]; po, 15 mg, AUC0-tau) was 362 ng·h/mL. The AUC(0-inf) ([5]; po, 15 mg) was 600 ng·h/mL, the AUC ([5]; po, 15 mg, AUCss) was 492 ng·h/mL and the Cmax ([5]; po, 15 mg) was 56 ng/mL. The Cmax ([5]; po, 15 mg, ss) was 65 ng/mL, the Tmax ([5]; po, 15 mg) was 1.03 h and the Tmax ([5]; po, 15 mg, ss) was 1.07 h. It also gave an AUC ([5]; po, 30 mg, AUC0-tau) of 842 ng·h/mL, an AUC(0-inf) ([5]; po, 30 mg) of 1230 ng·h/mL and an AUC ([5]; po, 30 mg, AUCss) of 1020 ng·h/mL. For the same molecule, the Cmax ([5]; po, 30 mg) was 133 ng/mL, the Cmax ([5]; po, 30 mg, ss) was 164 ng/mL and the Tmax ([5]; po, 30 mg, ss) was 0.964 h. For the same molecule, the AUC ([5]; po, 60 mg, AUC0-tau) was 2340 ng·h/mL, the AUC(0-inf) ([5]; po, 60 mg) was 2370 ng·h/mL and the AUC ([5]; po, 60 mg, AUCss) was 2080 ng·h/mL. The Cmax ([5]; po, 60 mg) was 364 ng/mL, the Cmax ([5]; po, 60 mg, ss) was 355 ng/mL and the Tmax ([5]; po, 60 mg) was 1.14 h. The Tmax ([5]; po, 60 mg, ss) was 0.969 h, the Tmax ([6]; human) was 1.00 (0.75, 1.77) h and the “Cmax higher under fasting conditions compared to fed conditions” value ([6]; human, 30 mg) was 1.5-1.6 times. The “t½, fasted versus fed conditions” value [6] was “similar”, the half-life ([7]; Fasted (Day 1)) was 673 min and the half-life ([7]; Fed (Day 1 as printed)) was 676 min.
